Series [1] is described as follows: Absorptive and emissive properties of flavylium heptamethine dyes in dichloromethane. It counts as physicochemical. An excerpt: As the highest energy absorber of the series, the 7-methoxy substituted dye 10 is ˜44 nm blue shifted from Flav7, with absorption at 984 nm, close to the 980 nm laser line, and emission at 1008 nm. […] The diphenylamino substituted 7 is ˜23 nm red-shifted compared to Flav7, while julolidine derivative 3 is red-shifted by ˜35 nm with absorption at 1061 nm and emission at 1088 nm. Due to its absorption maximum and high brightness (εmax), 3 was a promising candidate for SWIR imaging with 1064 nm excitation and was named Julo7. […] This increased understanding of the relationship between structural and absorption/emission wavelengths sets-up opportunities for predicting photophysical properties of the scaffold.
The absorption coefficients (ε) of the series vary from ˜110,000 to ˜240,000 M^−1cm^−1. […] The fluorescence quantum yields (φF) (relative measurements to IR-26=0.05%) remain rather constant, in the 0.4 to 0.6% range, despite red- or blue-shifted behavior, providing a platform for intensity-matched probes. […]
For excitation multiplexing, we are most interested in properties of the series of polymethine fluorophores when exited at 980 and 1064 nm. Thus, we calculated brightness (εA) values for each dye using the absorbance coefficient at the respective wavelengths. […]

Series [2] can be described thus: Two-color SWIR lymphatic imaging of narcotized mouse. It is filed as in vivo. The following applies: intradermally into footpads and base of tail, after 30 min. An excerpt: The FIGS. 9A, 9B and 9C show merged frames representing the lymphatic system of a narcotized mouse in two-color real-time acquisition. With detector exposure time of 20 ms, a frame rate of 21 fps is achieved with the developed system. […] Then, Julo 7 micelles have been injected intravenously. The lymphatic functional imaging is later enhanced by the assignment of two distinct colors.
Light Source (785 nm laser & 1064 nm laser sequentially triggered, pulse length=21 ms)→Collimator→Mirror→1100 nm Short-pass Filter→Engineered Diffuser→Sample. The arrows represent the light path. Accordingly, the light path has been set up as follows: from Light Source (785 nm laser & 1064 nm laser sequentially triggered, pulse length=21 ms) to Collimator to Mirror to 1100 nm Short-pass Filter to Engineered Diffuser to Sample.
Sample→3×f=500 mm C-Coated lenses→Silver Mirror→1000 nm Long-pass Filter→2×f=200 mm C-coated lenses→InGaAs Detector. The arrows represent the light path. Accordingly, the light path has been set up as follows: from Sample to 3×f=500 mm C-Coated lenses to Silver Mirror to 1000 nm Long-pass Filter to 2×f=200 mm C-coated lenses to InGaAs Detector.
Sample: ICG (aqueous, 13 nmol intradermally [footpads and base of tail]) and Julo7 (micelles, 70 nmol intravenously).

The conditions of series [3]: stated as known property; cited from earlier work.
Series [4] can be described thus: Three-color excitation-multiplexed SWIR imaging of awake mouse. It is filed as in vivo. The conditions noted are these: 80 minutes after i.p. 10 micelles and i.v. 3 micelles and ICG; top-view. From the text:
To obtain real-time images in three colors, heptamethine 10 was encapsulated in PEG-coated micelles to impart water solubility. In vivo, we introduced 10 micelles by intraperitoneal injection, and 3 micelles followed by ICG by intravenous injection. […] After establishing both the technology and the molecular tools for multiplexed real-time observation of function in mice, the next goal was to enhance existing SWIR imaging applications.
Physiological properties such as heart-rate, respiratory rate, thermoregulation, metabolism, and the function of the central nervous system, are highly impacted by anesthesia. […] Due to frame rates which are faster than macroscopic movements in animals, the heart rate and respiratory rate in awake animals can be quantified. […] The method allows physiology to be monitored with minimal perturbation of the animal's usual environment. […] The real-time collection can be visualized by observing close time-points in which a continuous movement is monitored without visual aberrations (FIG. 16A). In addition to assessing natural physiology, these tools foreshadow more complex experiments in which the location of multiple probes could be monitored over long periods of time, non-invasively and without the need for anesthesia.

The conditions of series [5]: reference value used for relative measurements; cited from earlier work.

As for `CN(C)c1ccc2c(c1)OC(c1ccccc1)=C/C2=C\C=C1/CCCC(/C=C/c2cc(-c3ccccc3)[o+]c3cc(N(C)C)ccc23)=C1Cl` [dye 1], in series [1], the “λmax,abs (absorption)” value came out at 1027 nm and the “λmax,em (emission)” value is 1053 nm.
As to `CC1(C)C(/C=C/C=C/C=C/C=C2\N(CCCCS(=O)(=O)[O-])c3ccc4ccccc4c3C2(C)C)=[N+](CCCCS(=O)(=O)[O-])c2ccc3ccccc3c21.[Na+]` [ICG, indocyanine green], in series [2], the “conduction through the lymphatic vessels” value is recorded as “efficiently conducted through the lymphatic vessels”. The clearance route result in series [3] was “clears efficiently and exclusively from the liver”. Also, the “location of probe in awake mouse” value in series [4] is “exclusively in the liver”.
Take `ClC1=C(/C=C/c2cc(-c3ccccc3)[s+]c3ccccc23)CCC/C1=C\C=C1/C=C(c2ccccc2)Sc2ccccc21.[O-][Cl+3]([O-])([O-])[O-]` [IR-26]: the “fluorescence quantum yield of reference standard” value in series [5] was 0.05%.

Source of the values: patent US12618846B2, “Method and device for imaging fluorescent proteins in near- and short-wave infrared” (HELMHOLTZ ZENTRUM MÜNCHEN—DEUTSCHES FORSCHUNGSZENTRUM FÜR …, priority 2019, dated 2026).
